Results reported in publication PMC4744088 (Journal of biomolecular screening, 2015).

Experiment: "true hits" assay alpha screen signal
Conditions: indicates false positive

In the case of `Nc1c(S(=O)(=O)O)cc(Nc2ccc(Nc3nc(Cl)nc(Nc4cccc(S(=O)(=O)O)c4)n3)c(S(=O)(=O)O)c2)c2c1C(=O)c1ccccc1C2=O` [Reactive blue 2], the “inhibition of the "true hits" assay alpha screen signal” value is reported as “greater than 50%”.
